According to patent US4740601A, “Imidazole derivatives having antimicrobial activities” (SS Pharmaceutical Co., Ltd., priority 1985, dated 1988):
Converted amounts (≈) assume the structure as drawn. Read-outs that look alike come from different tables or passages of the source.

Legend:
Format in all cases: cell-based
[1] = test system: Aspergillus niger ATCC 9642; assay: antimicrobial activity, MIC; conditions: Aspergillus niger, ATCC9642, Aspergillus niger ATCC 9642; read-out: MIC
[2] = test system: Staphylococcus epidermidis ATCC 12228; assay: antimicrobial activity, MIC; conditions: Staphylococcus epidermidis, ATCC12228, Staphylococcus epidermidis ATCC 12228; read-out: MIC
[3] = test system: Penicillium chrysogenum ATCC 6010; assay: antimicrobial activity, MIC; conditions: Penicillium chrysogenum, ATCC6010, Penicillium chrysogenum ATCC 6010; read-out: MIC
[4] = test system: Debaryomyces kloeckeri IFO 0015; assay: antimicrobial activity, MIC; conditions: IFO0015, read-out: MIC
[5] = test system: Micrococcus lysodeixticus IFO 3333; assay: antimicrobial activity, MIC; conditions: Micrococcus, IFO3333, Micrococcus lysodeixticus IFO 3333; read-out: MIC
[6] = test system: Pyricularia oryzae IAM 5016; assay: microbe, parasite or virus in culture; conditions: Pyricularia oryzae, IAM5016, Pyricularia oryzae IAM 5016
[7] = test system: Candida albicans NHL 4019; assay: antimicrobial activity, MIC; conditions: Candida albicans, NHL4019, Candida albicans NHL 4019; read-out: MIC
Sarcina lutea ATCC 9341 = assay: antimicrobial activity, MIC; conditions: Micrococcus luteus, ATCC9341, Sarcina lutea ATCC 9341; read-out: MIC
[8] = test system: Epidermophyton floccosum IFO 9045; assay: antimicrobial activity, MIC; conditions: Epidermophyton floccosum, IFO9045, Epidermophyton floccosum IFO 9045; read-out: MIC
Candida albicans Yu-1200 = assay: antimicrobial activity, MIC; conditions: YU1200, read-out: MIC
[9] = test system: Staphylococcus aureus Terajima; assay: antimicrobial activity, MIC; conditions: Staphylococcus aureus, read-out: MIC
[10] = test system: Trichophyton tonsurans IFO 5928; assay: antimicrobial activity, MIC; conditions: Trichophyton tonsurans, IFO5928, Trichophyton tonsurans IFO 5928; read-out: MIC
[11] = test system: Fusarium moniliforme IAM 5062; assay: antimicrobial activity, MIC; conditions: Fusarium verticillioides, IAM5062, Fusarium moniliforme IAM 5062; read-out: MIC
[12] = test system: Microsporum audounii IFO 6074; assay: antimicrobial activity, MIC; conditions: Microsporum, IFO6074, Microsporum audounii IFO 6074; read-out: MIC
[13] = test system: Cladosporium fulvum IAM 5006; assay: antimicrobial activity, MIC; conditions: Fulvia fulva, IAM5006, Cladosporium fulvum IAM 5006; read-out: MIC
[14] = test system: Staphylococcus aureus Smith; assay: antimicrobial activity, MIC; conditions: Staphylococcus aureus, read-out: MIC
[15] = test system: Trichophyton mentagrophytes IFO 5812; assay: antimicrobial activity, MIC
[16] = test system: Microsporum gypseum IFO 8231; assay: antimicrobial activity, MIC; conditions: Nannizzia gypsea, IFO8231, Microsporum gypseum IFO 8231; read-out: MIC
[17] = test system: Gibberella fujikuroi IAM 8046; assay: antimicrobial activity, MIC; conditions: Fusarium fujikuroi, IAM8046, Gibberella fujikuroi IAM 8046; read-out: MIC
[18] = test system: Bacillus subtilis ATCC 6633; assay: antimicrobial activity, MIC; conditions: Bacillus subtilis, ATCC6633, Bacillus subtilis ATCC 6633; read-out: MIC
[19] = test system: Trichophyton rubrum NHL J; assay: antimicrobial activity, MIC; conditions: Trichophyton rubrum
[20] = test system: Aspergillus oryzae IMF 4014; assay: antimicrobial activity, MIC; conditions: Aspergillus oryzae, IMF4014, Aspergillus oryzae IMF 4014; read-out: MIC
[21] = test system: Helminthosporium sesamum IAM 5012; assay: antimicrobial activity, MIC; conditions: Helminthosporium, IAM5012, Helminthosporium sesamum IAM 5012; read-out: MIC
[22] = test system: Staphylococcus aureus FDA 209P; assay: antimicrobial activity, MIC; conditions: Staphylococcus aureus, FDA209P, read-out: MIC
[23] = test system: Saccharomyces cerevisiae ATCC 9763; assay: antimicrobial activity, MIC; conditions: Saccharomyces cerevisiae, ATCC9763, Saccharomyces cerevisiae ATCC 9763; read-out: MIC
[24] = test system: Trichophyton mentagrophytes QM 248; assay: antimicrobial activity, MIC; conditions: Trichophyton mentagrophytes, QM248, Trichophyton mentagrophytes QM 248; read-out: MIC
[25] = test system: Streptococcus faecalis IFO 12964; assay: antimicrobial activity, MIC; conditions: Enterococcus faecalis, IFO12964, Streptococcus faecalis IFO 12964; read-out: MIC
Saccharomyces ruxii 6507 = assay: antimicrobial activity, MIC
[26] = test system: Microsporum cookei IFO 8303; assay: antimicrobial activity, MIC; conditions: Paraphyton cookei, IFO8303, Microsporum cookei IFO 8303; read-out: MIC
[27] = Trichophyton mentagrophytes, IFO5812, Trichophyton mentagrophytes IFO 5812, read-out: MIC
[28] = Trichophyton rubrum NHL J, read-out: MIC
[29] = Saccharomyces ruxii 6507, read-out: MIC

CCCOc1ccccc1C(=CSCCC)n1ccnc1 (single isomer, unassigned) [Compound 39]
MIC [1]: 1.56 µg/mL (≈ 5.16 µM) | MIC [2]: 25 µg/mL (≈ 82.7 µM) | MIC [3]: 1.56 µg/mL (≈ 5.16 µM) | MIC [4]: 6.25 µg/mL (≈ 20.7 µM) | MIC [5]: 6.25 µg/mL (≈ 20.7 µM) | MIC [6]: < 0.2 µg/mL | MIC [7]: 25 µg/mL (≈ 82.7 µM) | MIC (Sarcina lutea ATCC 9341): 12.5 µg/mL (≈ 41.3 µM) | MIC [8]: 1.56 µg/mL (≈ 5.16 µM) | MIC (Candida albicans Yu-1200): 50 µg/mL (≈ 165 µM) | MIC [9]: 25 µg/mL (≈ 82.7 µM) | MIC [10]: 0.39 µg/mL (≈ 1.29 µM) | MIC [11]: 0.78 µg/mL (≈ 2.58 µM) | MIC [12]: < 0.2 µg/mL | MIC [13]: 25 µg/mL (≈ 82.7 µM) | MIC [14]: 25 µg/mL (≈ 82.7 µM) | MIC [15, 27]: 0.39 µg/mL (≈ 1.29 µM) | MIC [16]: 0.39 µg/mL (≈ 1.29 µM) | MIC [17]: 0.78 µg/mL (≈ 2.58 µM) | MIC [18]: 12.5 µg/mL (≈ 41.3 µM) | MIC [19, 28]: < 0.2 µg/mL | MIC [20]: 0.78 µg/mL (≈ 2.58 µM) | MIC [21]: 0.39 µg/mL (≈ 1.29 µM) | MIC [22]: 25 µg/mL (≈ 82.7 µM) | MIC [23]: 0.39 µg/mL (≈ 1.29 µM) | MIC [24]: 0.39 µg/mL (≈ 1.29 µM) | MIC [25]: 25 µg/mL (≈ 82.7 µM) | MIC (Saccharomyces ruxii 6507; [29]): 0.78 µg/mL (≈ 2.58 µM) | MIC [26]: 1.56 µg/mL (≈ 5.16 µM)

CCCCCCOc1ccccc1C(=CSC)n1ccnc1 (single isomer, unassigned) [Compound 27]
MIC [1]: 0.39 µg/mL (≈ 1.23 µM) | MIC [2]: 6.25 µg/mL (≈ 19.7 µM) | MIC [3]: 1.56 µg/mL (≈ 4.93 µM) | MIC [4]: 1.56 µg/mL (≈ 4.93 µM) | MIC [5]: 1.56 µg/mL (≈ 4.93 µM) | MIC [6]: < 0.2 µg/mL | MIC [7]: 25 µg/mL (≈ 79 µM) | MIC (Sarcina lutea ATCC 9341): 3.12 µg/mL (≈ 9.86 µM) | MIC [8]: < 0.2 µg/mL | MIC (Candida albicans Yu-1200): 50 µg/mL (≈ 158 µM) | MIC [9]: 6.25 µg/mL (≈ 19.7 µM) | MIC [10]: < 0.2 µg/mL | MIC [11]: < 0.2 µg/mL | MIC [12]: < 0.2 µg/mL | MIC [13]: 3.12 µg/mL (≈ 9.86 µM) | MIC [14]: 12.5 µg/mL (≈ 39.5 µM) | MIC [15, 27]: < 0.2 µg/mL | MIC [16]: < 0.2 µg/mL | MIC [17]: < 0.2 µg/mL | MIC [18]: 6.25 µg/mL (≈ 19.7 µM) | MIC [19, 28]: < 0.2 µg/mL | MIC [20]: < 0.2 µg/mL | MIC [21]: < 0.2 µg/mL | MIC [22]: 12.5 µg/mL (≈ 39.5 µM) | MIC [23]: < 0.2 µg/mL | MIC [24]: < 0.2 µg/mL | MIC [25]: 12.5 µg/mL (≈ 39.5 µM) | MIC (Saccharomyces ruxii 6507; [29]): < 0.2 µg/mL | MIC [26]: < 0.2 µg/mL

CCCCOc1ccccc1C(=C(Br)Br)n1ccnc1 [Compound 93]
MIC [1]: > 100 µg/mL | MIC [2]: 25 µg/mL (≈ 62.5 µM) | MIC [3]: > 100 µg/mL | MIC [4]: 6.25 µg/mL (≈ 15.6 µM) | MIC [5]: 6.25 µg/mL (≈ 15.6 µM) | MIC [6]: 0.39 µg/mL (≈ 0.975 µM) | MIC [7]: 100 µg/mL (≈ 250 µM) | MIC (Sarcina lutea ATCC 9341): 25 µg/mL (≈ 62.5 µM) | MIC [8]: 25 µg/mL (≈ 62.5 µM) | MIC (Candida albicans Yu-1200): > 100 µg/mL | MIC [9]: 25 µg/mL (≈ 62.5 µM) | MIC [10]: 1.56 µg/mL (≈ 3.9 µM) | MIC [11]: > 100 µg/mL | MIC [12]: < 0.2 µg/mL | MIC [13]: > 100 µg/mL | MIC [14]: 25 µg/mL (≈ 62.5 µM) | MIC [15, 27]: < 0.2 µg/mL | MIC [16]: 6.25 µg/mL (≈ 15.6 µM) | MIC [17]: > 100 µg/mL | MIC [18]: 12.5 µg/mL (≈ 31.2 µM) | MIC [19, 28]: 0.39 µg/mL (≈ 0.975 µM) | MIC [20]: > 100 µg/mL | MIC [21]: 50 µg/mL (≈ 125 µM) | MIC [22]: 25 µg/mL (≈ 62.5 µM) | MIC [23]: < 0.2 µg/mL | MIC [24]: 1.56 µg/mL (≈ 3.9 µM) | MIC [25]: 50 µg/mL (≈ 125 µM) | MIC (Saccharomyces ruxii 6507; [29]): < 0.2 µg/mL | MIC [26]: 12.5 µg/mL (≈ 31.2 µM)

CCCCCCOc1ccccc1C(=COC)n1ccnc1 (single isomer, unassigned) [Compound 73]
MIC [1]: 12.5 µg/mL (≈ 41.6 µM) | MIC [2]: 6.25 µg/mL (≈ 20.8 µM) | MIC [3]: 6.25 µg/mL (≈ 20.8 µM) | MIC [4]: 3.12 µg/mL (≈ 10.4 µM) | MIC [5]: 3.12 µg/mL (≈ 10.4 µM) | MIC [6]: 1.56 µg/mL (≈ 5.19 µM) | MIC [7]: 50 µg/mL (≈ 166 µM) | MIC (Sarcina lutea ATCC 9341): 6.25 µg/mL (≈ 20.8 µM) | MIC [8]: 6.25 µg/mL (≈ 20.8 µM) | MIC (Candida albicans Yu-1200): 50 µg/mL (≈ 166 µM) | MIC [9]: 6.25 µg/mL (≈ 20.8 µM) | MIC [10]: 3.12 µg/mL (≈ 10.4 µM) | MIC [11]: 12.5 µg/mL (≈ 41.6 µM) | MIC [12]: 0.78 µg/mL (≈ 2.6 µM) | MIC [13]: 6.25 µg/mL (≈ 20.8 µM) | MIC [14]: 12.5 µg/mL (≈ 41.6 µM) | MIC ([15]; Trichophyton mentagrophytes IFO 5812): 1.56 µg/mL (≈ 5.19 µM) | MIC [16]: 3.12 µg/mL (≈ 10.4 µM) | MIC [17]: 6.25 µg/mL (≈ 20.8 µM) | MIC [18]: 6.25 µg/mL (≈ 20.8 µM) | MIC [19]: 1.56 µg/mL (≈ 5.19 µM) | MIC [20]: 6.25 µg/mL (≈ 20.8 µM) | MIC [21]: 6.25 µg/mL (≈ 20.8 µM) | MIC [22]: 12.5 µg/mL (≈ 41.6 µM) | MIC [23]: 50 µg/mL (≈ 166 µM) | MIC [24]: 3.12 µg/mL (≈ 10.4 µM) | MIC [25]: 12.5 µg/mL (≈ 41.6 µM) | MIC (Saccharomyces ruxii 6507; Saccharomyces, 6507, Saccharomyces ruxii 6507): 1.56 µg/mL (≈ 5.19 µM) | MIC [26]: 6.25 µg/mL (≈ 20.8 µM)
